The experiment deals with Human recombinant PDE4 (Genbank accession no NM—006203) (Homo sapiens, UniProt Q08499). Nature of the experiment: PDE4 assay (SPA, cAMP cleavage). The experiment is classed as biochemical. As to conditions: read-out: PDE4 IC50 range. How it is done: At the end of the incubation, the cleavage of the substrate was evaluated by the binding of the AMP product to SPA beads, which generate chemoluminescence when bound to the radioactive tracer. The AMP product inhibited the binding of the radioactive tracer to the beads, and the luminescent signal was competed.

Where [1] appears, read: Example 53, PDE4 assay as in example 52.
The mark [2] stands for this setting: Example 52, human recombinant PDE4, 1 hour incubation, cAMP 1×10^-5M, test compound up to 10 μM.

The structures appear in SMILES notation. Like-named read-outs stand apart in the source and are kept apart here.

Chain of Human recombinant PDE4 (Genbank accession no NM—006203) (Q08499 1-673 isoform Q08499-2): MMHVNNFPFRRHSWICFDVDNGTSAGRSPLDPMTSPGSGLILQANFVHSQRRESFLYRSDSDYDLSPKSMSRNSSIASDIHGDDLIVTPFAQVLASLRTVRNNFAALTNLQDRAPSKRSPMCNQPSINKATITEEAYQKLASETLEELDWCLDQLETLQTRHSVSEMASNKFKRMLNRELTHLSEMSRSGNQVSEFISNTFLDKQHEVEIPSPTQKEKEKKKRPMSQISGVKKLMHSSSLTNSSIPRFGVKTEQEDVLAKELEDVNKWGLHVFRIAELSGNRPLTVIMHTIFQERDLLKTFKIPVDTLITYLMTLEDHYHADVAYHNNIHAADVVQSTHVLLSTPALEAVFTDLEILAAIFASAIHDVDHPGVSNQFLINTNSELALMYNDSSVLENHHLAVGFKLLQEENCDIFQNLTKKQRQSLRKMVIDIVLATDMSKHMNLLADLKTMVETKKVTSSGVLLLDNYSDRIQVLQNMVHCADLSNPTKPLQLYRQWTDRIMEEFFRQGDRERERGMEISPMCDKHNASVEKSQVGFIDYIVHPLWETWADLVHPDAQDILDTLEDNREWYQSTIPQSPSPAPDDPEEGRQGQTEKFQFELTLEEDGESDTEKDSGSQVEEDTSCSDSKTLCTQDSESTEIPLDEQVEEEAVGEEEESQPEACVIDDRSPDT

With `COc1ccc(-c2cncc(C#N)c2)n2nc(C3(C(=O)NCc4ccccc4)CC3)nc12` [Compound 173, 1-[5-(5-Cyano-pyridin-3-yl)-8-methoxy-[1,2,4]triazolo[1,5-a]pyridin-2-yl]-cyclopropanecarboxylic acid benzylamide], the IC50 (as a rule, the concentration that inhibits the measured activity by half) under setting [1] is less than 500 nM.

On to `COc1cc(-c2ccc(OC)c3nc(C4(COC(=O)NC5CCCCC5)CC4)nn23)ccc1C#N` [Compound 241, Cyclohexyl-carbamic acid 1-[5-(4-cyano-3-methoxy-phenyl)-8-methoxy-[1,2,4]triazolo[1,5-a]pyridin-2-yl]-cyclopropylmethyl ester], for which the IC50 under setting [1] was less than 500 nM.

For the compound `COc1ccc(C2=NNC(=O)CC2C)n2nc(C3CC3)nc12` (stereo not drawn) [Compound 158, 6-(2-Cyclopropyl-8-methoxyl-[1,2,4]triazolo[1,5-a]pyridin-5-yl)-5-methyl-4,5-dihydro-2H-pyridazin-3-one], the IC50 under setting [1] lay in the range of 500 to 1000 nM.

Regarding `COc1ccc(-c2cccc3c2CCC3=O)n2nc(C3(C(=O)NCCS(C)(=O)=O)CC3)nc12` [Compound 183, 1-[8-Methoxy-5-(1-oxo-indan-4-yl)-[1,2,4]triazolo[1,5-a]pyridin-2-yl]-cyclopropanecarboxylic acid (2-methanesulfonyl-ethyl)-amide], under setting [1], the IC50 is less than 500 nM.

As for `COc1ccc(-c2ccc3c(c2)COC3=O)n2nc(C3(C(=O)NCc4ccccc4)CC3)nc12` [Compound 179, 1-[8-Methoxy-5-(1-oxo-1,3-dihydro-isobenzofuran-5-yl)-[1,2,4]triazolo[1,5-a]pyridin-2-yl]-cyclopropanecarboxylic acid benzylamide], the IC50 under setting [1] is less than 500 nM.

Consider `COc1ccc(-c2ccc3c(c2)CCC3=O)n2nc(C3(C(=O)NC(C)C)CC3)nc12` [Compound 181, 1-[8-Methoxy-5-(1-oxo-indan-5-yl)-[1,2,4]triazolo[1,5-a]pyridin-2-yl]-cyclopropanecarboxylic acid isopropylamide], for which the IC50 under setting [1] was less than 500 nM.

In the case of `COc1ccc(-c2cccc3c2CCC3=O)n2nc(C3(C(=O)NCC4CCCCC4)CC3)nc12` [Compound 176, 1-[8-Methoxy-5-(1-oxo-indan-4-yl)-[1,2,4]triazolo[1,5-a]pyridin-2-yl]-cyclopropanecarboxylic acid cyclohexylmethyl-amide], the IC50 under setting [1] was less than 500 nM.

Consider `COc1cc(-c2ccc(OC)c3nc(C4(COC(=O)NC(C)C)CC4)nn23)ccc1C#N` [Compound 235, Isopropyl-carbamic acid 1-[5-(4-cyano-3-methoxy-phenyl)-8-methoxy-[1,2,4]triazolo[1,5-a]pyridin-2-yl]-cyclopropylmethyl ester], for which the IC50 under setting [1] was less than 500 nM.

As for `COc1ccc(-c2ccc(C(C)=O)s2)n2nc(C3CC3)nc12` [Compound 110, 1-[5-(2-Cyclopropyl-8-methoxy-[1,2,4]triazolo[1,5-a]pyridin-5-yl)-thiophen-2-yl]-ethanone], under setting [2], the IC50 is less than 500 nM.

Turning to `COc1ccc(-c2cccc(C#N)c2)n2nc(C3(C(=O)NC(C)C)CC3)nc12` [Compound 194, 1-[5-(3-Cyano-phenyl)-8-methoxyl-[1,2,4]triazolo[1,5-a]pyridin-2-yl]-cyclopropanecarboxylic acid isopropylamide], under setting [1], the IC50 was less than 500 nM.

With `COc1ccc(-c2ccc3c(c2)COC3=O)n2nc(C3(C(=O)NCC4CCCCC4)CC3)nc12` [Compound 270, 1-[8-Methoxy-5-(1-oxo-1,3-dihydro-isobenzofuran-5-yl)-[1,2,4]triazolo[1,5-a]pyridin-2-yl]-cyclopropanecarboxylic acid cyclohexylmethyl-amide], under setting [1], the IC50 was less than 500 nM.

`COc1ccc(-c2cccnc2)n2nc(C3CC3)nc12` [Compound 118, 2-Cyclopropyl-8-methoxy-5-pyridin-3-yl-[1,2,4]triazolo[1,5-a]pyridine]: the IC50 under setting [2] is less than 500 nM.

In the case of `COc1ccc(-c2ccc(NC(C)=O)cc2)n2nc(C3CC3)nc12` [Compound 116, N-[4-(2-Cyclopropyl-8-methoxy-[1,2,4]triazolo[1,5-a]pyridin-5-yl)-phenyl]-acetamide], the IC50 under setting [2] was greater than 1000 nM.

For `COc1ccc(-c2ccc(C#N)cc2)n2nc(C3CC3)nc12` [Compound 132, 4-(2-Cyclopropyl-8-methoxy-[1,2,4]triazolo[1,5-a]pyridin-5-yl)-benzonitrile], the IC50 under setting [2] is less than 500 nM.

As to `CCCNC(=O)OCC1(c2nc3c(OC)ccc(-c4cccc5c4CCC5=O)n3n2)CC1` [Compound 233, Propyl-carbamic acid 1-[8-methoxy-5-(1-oxo-indan-4-yl)-[1,2,4]triazolo[1,5-a]pyridin-2-yl]-cyclopropylmethyl ester], the IC50 under setting [1] was less than 500 nM.

Consider `COc1ccc(-c2ccc3c(c2)CCC3=O)n2nc(C3(C(=O)NCCS(C)(=O)=O)CC3)nc12` [Compound 184, 1-[8-Methoxy-5-(1-oxo-indan-5-yl)-[1,2,4]triazolo[1,5-a]pyridin-2-yl]-cyclopropanecarboxylic acid (2-methanesulfonyl-ethyl)-amide], for which the IC50 under setting [1] is less than 500 nM.

For the compound `CCNC(=O)C1(c2nc3c(OC)ccc(-c4ccc(C#N)cc4)n3n2)CC1` [Compound 211, 1-[5-(4-Cyano-phenyl)-8-methoxy-[1,2,4]triazolo[1,5-a]pyridin-2-yl]-cyclopropanecarboxylic acid ethylamide], the IC50 under setting [1] is less than 500 nM.

As for `COc1ccc(-c2cccc(C#N)c2)n2nc(C3(CNC(=O)OC4CCCC4)CC3)nc12` [Compound 155, {1-[5-(3-Cyano-phenyl)-8-methoxyl-[1,2,4]triazolo[1,5-a]pyridin-2-yl]-cyclopropylmethyl}-carbamic acid cyclopentyl ester], the IC50 under setting [1] was less than 500 nM.

Take `COc1ccc(-c2cccc(C(C)=O)c2)n2nc(C3(C(=O)N4CCOCC4)CC3)nc12` [Compound 223, 1-(3-{8-Methoxy-2-[1-(morpholine-4-carbonyl)-cyclopropyl]-[1,2,4]-triazolo[1,5-a]pyridin-5-yl}-phenyl)-ethanone]: the IC50 under setting [1] is less than 500 nM.

As for `COc1ccc(-c2cccc(C#N)c2)n2nc(C3(COCc4ccccc4)CC3)nc12` [Compound 153, 3-[2-(1-Benzyloxymethyl-cyclopropyl)-8-methoxy-[1,2,4]-triazolo[1,5-a]pyridin-5-yl]-benzonitrile], the IC50 under setting [1] was less than 500 nM.

As for `COc1cc(-c2ccc(OC)c3nc(C4(C(=O)NCC5CCCCC5)CC4)nn23)ccc1C#N` [Compound 174, 1-[5-(4-Cyano-3-methoxy-phenyl)-8-methoxy-[1,2,4]triazolo[1,5-a]pyridin-2-yl]-cyclopropanecarboxylic acid cyclohexylmethyl-amide], the IC50 under setting [1] was less than 500 nM.

In the case of `COc1ccc(-c2ccc(C#N)cc2)n2nc(C3(C(=O)NCCS(C)(=O)=O)CC3)nc12` [Compound 208, 1-[5-(4-Cyano-phenyl)-8-methoxy-[1,2,4]triazolo[1,5-a]pyridin-2-yl]-cyclopropanecarboxylic acid (2-methanesulfonyl-ethyl)-amide], the IC50 under setting [1] was less than 500 nM.

Consider `COc1ccc(-c2ccc(CNC(C)=O)cc2)n2nc(C3CC3)nc12` [Compound 129, N-[4-(2-Cyclopropyl-8-methoxy-[1,2,4]triazolo[1,5-a]pyridin-5-yl)-benzyl]-acetamide], for which the IC50 under setting [2] was greater than 1000 nM.

Take `COc1ccc(-c2cccc(C#N)c2)n2nc(C3(C(=O)NCCO)CC3)nc12` [Compound 228, 1-[5-(3-Cyano-phenyl)-8-methoxy-[1,2,4]triazolo[1,5-a]pyridin-2-yl]-cyclopropanecarboxylic acid (2-hydroxy-ethyl)-amide]: the IC50 under setting [1] is less than 500 nM.

Regarding `COc1ccc(-c2ccc(C#N)cc2)n2nc(C3(C(N)=O)CC3)nc12` [Compound 148, 1-[5-(4-Cyano-phenyl)-8-methoxy-[1,2,4]triazolo[1,5-a]pyridin-2-yl]-cyclopropanecarboxylic acid amide], the IC50 under setting [1] is less than 500 nM.

As to `COc1ccc(-c2ccc(C#N)cc2)n2nc(C3(C(=O)NCC(C)C)CC3)nc12` [Compound 214, 1-[5-(4-Cyano-phenyl)-8-methoxy-[1,2,4]triazolo[1,5-a]pyridin-2-yl]-cyclopropanecarboxylic acid isobutyl-amide], the IC50 under setting [1] is less than 500 nM.

Consider `COc1cc(-c2ccc(OC)c3nc(C4CC4)nn23)ccc1C#N` [Compound 166, 4-(2-Cyclopropyl-8-methoxy-[1,2,4]triazolo[1,5-a]pyridin-5-yl)-2-methoxy-benzonitrile], for which the IC50 under setting [1] was less than 500 nM.

As for `COc1ccc(-c2ccc(F)cc2)n2nc(C3CC3)nc12` [Compound 131, 2-Cyclopropyl-5-(4-fluoro-phenyl)-8-methoxy-[1,2,4]triazolo[1,5-a]pyridine], the IC50 under setting [2] was less than 500 nM.

For the compound `CCOC(=O)C1(c2nc3c(OC)ccc(-c4cccc(C(C)=O)c4)n3n2)CC1` [Compound 190, 1-[5-(3-Acetyl-phenyl)-8-methoxy-[1,2,4]triazolo[1,5-a]pyridin-2-yl]-cyclopropanecarboxylic acid ethyl ester], the IC50 under setting [1] was less than 500 nM.

Regarding `COc1ccc(-c2ccc(C#N)cc2)n2nc(C3(C(=O)NCCN(C)S(C)(=O)=O)CC3)nc12` [Compound 220, 1-[5-(4-Cyano-phenyl)-8-methoxy-[1,2,4]triazolo[1,5-a]pyridin-2-yl]-cyclopropanecarboxylic acid [2-(methanesulfonyl-methyl-amino)-ethyl]-amide], the IC50 under setting [1] was less than 500 nM.

For `COc1ccc(-c2ccc(OC)c3nc(C4CC4)nn23)cc1` [Compound 103, 2-Cyclopropyl-8-methoxy-5-(4-methoxy-phenyl)-[1,2,4]triazolo[1,5-a]pyridine], the IC50 under setting [2] was less than 500 nM.

For `COc1ccc(-c2cccc(C(C)=O)c2)n2nc(C3(C(=O)O)CC3)nc12` [Compound 193, 1-[5-(3-Acetyl-phenyl)-8-methoxyl-[1,2,4]triazolo[1,5-a]pyridin-2-yl]-cyclopropanecarboxylic acid], the IC50 under setting [1] is greater than 1000 nM.

`COc1ccc(-c2cncc(C#N)c2)n2nc(C3CC3)nc12` [Compound 159, 5-(2-Cyclopropyl-8-methoxy-[1,2,4]triazolo[1,5-a]pyridin-5-yl)-nicotinonitrile]: the IC50 under setting [1] is less than 500 nM.

The values are drawn from patent US8952162B2, “Triazolopyridines as phosphodiesterase inhibitors for treatment of dermal diseases” (Leo Pharma A/S, priority 2008, dated 2015).
